Experimental data published in patent publication US11851440B2, “Modulators of eukaryotic initiation factor 2B, compositions and methods” (Denali Therapeutics Inc., priority 2017, dated 2023).

System: ISR pathway (ATF4 translation)
Assay: ATF4 Nano Luciferase reporter integrated stress response (ISR) assay in H4 ATF4-NLuc cells
Conditions: H4 ATF4-NLuc (clone 17) cells; compound 30 minutes, then 50 um sodium arsenite for 6 hours; luminescence readout

| IC50 [nM] | Structure (SMILES) |
| --- | --- |
| 28.5 | O=C(NC12CC(c3nnc([C@H]4C[C@@H](OC(F)(F)F)C4)o3)(C1)C2)c1ccc2cc(F)ccc2n1 [Example 189, 6-fluoro-N-[1-[5-[3-cis-(trifluoromethoxy)cyclobutyl]-1,3,4-oxadiazol-2-yl]-3-bicyclo[1.1.1]pentanyl]quinoline-2-carboxamide] |

Same assay, conditions: Homo sapiens, H4 ATF4-NLuc (clone 17) cells; compound 30 minutes, then 50 um sodium arsenite for 6 hours; luminescence readout

| IC50 [nM] | Structure (SMILES) |
| --- | --- |
| 22 | O=C(CO[C@H]1C[C@@H](OC(F)(F)F)C1)NC12CC(n3cnc(-c4ccc(F)cc4)c3)(C1)C2 [Example 136] |
| 9.2 | O=C(NC12CC(c3nnc([C@H]4C[C@@H](OC(F)(F)F)C4)o3)(C1)C2)C1CCc2cc(Cl)ccc2O1 (single isomer, unassigned) [Example 157, 6-chloro-N-(3-(5-(3-cis-(trifluoromethoxy)cyclobutyl)-1,3,4-oxadiazol-2-yl)bicyclo[1.1.1]pentan-1-yl)chroman-2-carboxamide] |
| 9.2 | O=C(COc1ccc(Cl)cc1)NC12CC(c3nnc([C@H]4C[C@@H](OC(F)(F)F)C4)o3)(C1)C2 [Example 3, 2-(4-chlorophenoxy)-N-[3-[5-[cis-3-(trifluoromethoxy)cyclobutyl]-1,3,4-oxadiazol-2-yl]-1-bicyclo[1.1.1]pentanyl]acetamide] |

Same assay, conditions: Homo sapiens, read-out: Activity (IC50), H4 ATF4-NLuc (clone 17) cells; compound 30 minutes, then 50 um sodium arsenite for 6 hours; luminescence readout

| Structure (SMILES) | IC50 [nM] |
| --- | --- |
| O=C(COc1ccc(Cl)c(F)c1)NC12CC(c3nnc(C4(F)CC4)o3)(C1)C2 [Example 10, 2-(4-chloro-3-fluoro-phenoxy)-N-[1-[5-(1-fluorocyclopropyl)-1,3,4-oxadiazol-2-yl]-3-bicyclo[1.1.1]pentanyl]acetamide] | < 1000 |
| CC(C)(C)OC(=O)N1CCC(c2nnc(C34CC(NC(=O)COc5ccc(Cl)c(F)c5)(C3)C4)o2)C1 (centres unmarked) [Example 14, tert-butyl 3-[5-[3-[[2-(4-chloro-3-fluoro-phenoxy)acetyl]amino]-1-bicyclo[1.1.1]pentanyl]-1,3,4-oxadiazol-2-yl]pyrrolidine-1-carboxylate] | < 1000 |
| O=C(CO[C@H]1C[C@H](OC(F)(F)F)C1)NC12CC(n3cnc(-c4ccc(Cl)cc4)c3)(C1)C2 [Example 141] | < 1000 |
| O=C(NC12CC(c3nnc([C@H]4C[C@@H](OC(F)(F)F)C4)o3)(C1)C2)c1nc2cc(Cl)ccn2n1 [Example 176] | < 1000 |
| O=C(CO[C@H]1C[C@H](OC(F)(F)F)C1)NC12CC(c3nnc([C@H]4C[C@@H](OC(F)(F)F)C4)o3)(C1)C2 [Example 95, 2-[3-trans-(trifluoromethoxy)cyclobutoxy]-N-[3-[5-[3-cis-(trifluoromethoxy)cyclobutyl]-1,3,4-oxadiazol-2-yl]-1-bicyclo[1.1.1]pentanyl]acetamide] | < 1000 |
| O=C(COc1ccc(C2CC2)cc1)NC12CC(c3nnc([C@H]4C[C@@H](OC(F)(F)F)C4)o3)(C1)C2 [Example 120, 2-(4-cyclopropylphenoxy)-N-[3-[5-[3-cis-(trifluoromethoxy)cyclobutyl]-1,3,4-oxadiazol-2-yl]-1-bicyclo[1.1.1]pentanyl]acetamide] | < 1000 |
| O=C(COc1ccc(Cl)c(F)c1)NC12CC(c3cn([C@H]4C[C@@H](OC(F)(F)F)C4)nn3)(C1)C2 [Example 65, 2-(4-chloro-3-fluoro-phenoxy)-N-[3-[1-[3-cis-(trifluoromethoxy)cyclobutyl]triazol-4-yl]-1-bicyclo[1.1.1]pentanyl]acetamide] | < 1000 |
| O=C(NC12CC(c3nnc([C@H]4C[C@@H](OC(F)(F)F)C4)o3)(C1)C2)c1cc2ccc(Cl)cc2nn1 [Example 183] | < 1000 |
| O=C(NC12CC(c3nnc([C@H]4C[C@@H](OC(F)(F)F)C4)o3)(C1)C2)OCc1ccc(Cl)cc1 [Example 110, (4-chlorophenyl)methyl-N-[3-[5-[3-cis-(trifluoromethoxy)cyclobutyl]-1,3,4-oxadiazol-2-yl]-1-bicyclo[1.1.1]pentanyl]carbamate] | < 1000 |
| CC(CC(F)F)c1nnc(C23CC(NC(=O)COc4ccc(Cl)c(F)c4)(C2)C3)o1 (centres unmarked) [Example 7, 2-(4-chloro-3-fluoro-phenoxy)-N-[1-[5-(3,3-difluoro-1-methyl-propyl)-1,3,4-oxadiazol-2-yl]-3-bicyclo[1.1.1]pentanyl]acetamide] | < 1000 |
| O=C(COc1ccc(Cl)c(F)c1)NC12CC(c3nnc([C@@H]4CC[C@H](COC(F)(F)F)O4)o3)(C1)C2 [Example 124, 2-(4-chloro-3-fluoro-phenoxy)-N-[3-[5-[5-cis-(trifluoromethoxymethyl)tetrahydrofuran-2-yl]-1,3,4-oxadiazol-2-yl]-1-bicyclo[1.1.1]pentanyl]acetamide] | < 1000 |
| N#C[C@H]1C[C@@H](n2ncc(C34CC(NC(=O)COc5ccc(Cl)c(F)c5)(C3)C4)n2)C1 (relative stereo) [Example 36, 2-(4-chloro-3-fluorophenoxy)-N-(3-(2-((cis)-3-cyanocyclobutyl)-2H-1,2,3-triazol-4-yl)bicyclo[1.1.1]pentan-1-yl)acetamide] | < 1000 |
| O=C(CO[C@H]1C[C@@H](OC(F)(F)F)C1)NC12CC(n3cnc(-c4ccc(F)cc4)c3)(C1)C2 [Example 136] | < 1000 |
| O=C(NC12CC(c3nnc(C4CC(OC(F)(F)F)C4)o3)(C1)C2)c1nc2cc(Cl)ccc2o1 (centres unmarked) [Example 165] | < 1000 |
| O=C(COc1ccc(Cl)cc1)NC12CC(c3nnc(C4CCCO4)o3)(C1)C2 (centres unmarked) [Example 2, 2-(4-Chlorophenoxy)-N-[3-(5-tetrahydrofuran-2-yl-1,3,4-oxadiazol-2-yl)-1-bicyclo[1.1.1]pentanyl]acetamide] | 1000 to 10000 |
| O=C(NC12CC(c3nnc([C@H]4C[C@@H](OC(F)(F)F)C4)o3)(C1)C2)c1ccn([C@H]2C[C@@H](OC(F)(F)F)C2)n1 (single isomer, unassigned) [Example 108, 1-[cis-3-(trifluoromethoxy)cyclobutyl]-N-[3-[5-[cis-3-(trifluoromethoxy)cyclobutyl]-1,3,4-oxadiazol-2-yl]-1-bicyclo[1.1.1]pentanyl]pyrazole-3-carboxamide] | < 1000 |
| O=C(COc1ccc(Cl)c(F)c1)NC12CC(c3cn(Cc4ccccc4)nn3)(C1)C2 [Example 58] | < 1000 |
| O=C(NC12CC(c3nnc([C@H]4C[C@@H](OC(F)(F)F)C4)o3)(C1)C2)C1=NO[C@@H](c2ccccc2)C1 [Example 99, cis-(R)-5-phenyl-N-(3-(5-(3-(trifluoromethoxy)cyclobutyl)-1,3,4-oxadiazol-2-yl)bicyclo[1.1.1]pentan-1-yl)-4,5-dihydroisoxazole-3-carboxamide] | > 10000 |
| O=C(NC12CC(c3nnc([C@H]4C[C@@H](OC(F)(F)F)C4)o3)(C1)C2)c1nc2cc(Cl)ccc2s1 [Example 175] | < 1000 |
| O=C(NC12CC(c3nnc([C@H]4C[C@@H](OC(F)(F)F)C4)o3)(C1)C2)C1CCc2cc(Cl)ccc2O1 (single isomer, unassigned) [Example 157, 6-chloro-N-(3-(5-(3-cis-(trifluoromethoxy)cyclobutyl)-1,3,4-oxadiazol-2-yl)bicyclo[1.1.1]pentan-1-yl)chroman-2-carboxamide] | < 1000 |
| O=C(COc1ccc(Cl)c(F)c1)NC12CC(c3nnc([C@H]4C[C@H](C(F)(F)F)C4)o3)(C1)C2 [Example 44, 2-(4-chloro-3-fluoro-phenoxy)-N-[1-[5-trans-[3-(trifluoromethyl)cyclobutyl]-1,3,4-oxadiazol-2-yl]-3-bicyclo[1.1.1]pentanyl]acetamide] | < 1000 |
| O=C(COc1ccc(Cl)cc1)NC12CC(c3nnc([C@H]4C[C@@H](OC(F)(F)F)C4)o3)(C1)C2 [Example 3, 2-(4-chlorophenoxy)-N-[3-[5-[cis-3-(trifluoromethoxy)cyclobutyl]-1,3,4-oxadiazol-2-yl]-1-bicyclo[1.1.1]pentanyl]acetamide] | < 1000 |
| O=C(COC1CC2C(C1)C2(F)F)NC12CC(c3nnc([C@H]4C[C@@H](OC(F)(F)F)C4)o3)(C1)C2 (stereo partly drawn) [Example 83, 2-[(6,6-difluoro-3-bicyclo[3.1.0]hexanyl)oxy]-N-[3-[5-[3-cis-(trifluoromethoxy)cyclobutyl]-1,3,4-oxadiazol-2-yl]-1-bicyclo[1.1.1]pentanyl]acetamide] | 1000 to 10000 |
| O=C(COC[C@H]1C[C@@H](OC(F)(F)F)C1)NC12CC(c3nnc([C@H]4C[C@@H](OC(F)(F)F)C4)o3)(C1)C2 [Example 117, 2-[[3-cis-(trifluoromethoxy)cyclobutyl]methoxy]-N-[3-[5-[3-cis-(trifluoromethoxy)cyclobutyl]-1,3,4-oxadiazol-2-yl]-1-bicyclo[1.1.1]pentanyl]acetamide] | 1000 to 10000 |
| CC(C)(Oc1ccc(Cl)cc1)C(=O)NC12CC(c3nnc([C@H]4C[C@@H](OC(F)(F)F)C4)o3)(C1)C2 [Example 154] | < 1000 |
| O=C(COc1cccc(F)c1)NC12CC(c3nnc([C@H]4C[C@@H](OC(F)(F)F)C4)o3)(C1)C2 [Example 105, 2-(3-fluorophenoxy)-N-[3-[5-[3-cis-(trifluoromethoxy)cyclobutyl]-1,3,4-oxadiazol-2-yl]-1-bicyclo[1.1.1]pentanyl]acetamide] | < 1000 |

Other lines, results leading:

| IC50 [nM] | Structure (SMILES) |
| --- | --- |
| < 1000 | O=C(CO[C@H]1C[C@@H](OC(F)(F)F)C1)NC12CC(N3CCN(c4ccc(Cl)cc4)C3=O)(C1)C2 [Example 264] |
| < 1000 | O=C(COc1ccc(Cl)cc1)NC12CC(N3CC(CC(F)(F)F)CC3=O)(C1)C2 (centres unmarked) [Example 210] |
| < 1000 | CN1C(=O)N(C23CC(NC(=O)COc4ccc(Cl)cc4)(C2)C3)CC1c1ccc(Cl)cc1 (centres unmarked) [Example 212] |
| < 1000 | O=C(CO[C@H]1C[C@@H](OC(F)(F)F)C1)NC12CC(c3nnc(-c4ccc(C(F)(F)F)nc4)o3)(C1)C2 [Example 204] |
| < 1000 | O=C(COc1ccc(Cl)c(F)c1)NC12CC(n3cnnn3)(C1)C2 [Example 200] |
| < 1000 | O=C(CO[C@H]1C[C@@H](OC(F)(F)F)C1)NC12CC(c3cc(-c4ccc(Cl)cc4)no3)(C1)C2 [Example 251] |
| < 1000 | O=C(COc1ccc(Cl)c(F)c1)NC12CC(C3CN(CC4CCC4)C(=O)O3)(C1)C2 (centres unmarked) [Example 220] |
| < 1000 | O=C(NC12CC(c3nnc([C@H]4C[C@@H](OC(F)(F)F)C4)o3)(C1)C2)c1ncc2ccccc2n1 [Example 191] |
| < 1000 | O=C(CO[C@H]1C[C@@H](OC(F)(F)F)C1)NC12CC(n3cnc(-c4cc(F)c(Cl)cc4F)c3)(C1)C2 [Example 271] |
| 1000 to 10000 | O=C(COc1ccc(Cl)cc1)NC12CC(N3CC(C4CCC4)CC3=O)(C1)C2 (centres unmarked) [Example 213] |
| < 1000 | O=C(CO[C@H]1C[C@@H](OC(F)(F)F)C1)NC12CC(c3nnn(-c4ccc(Cl)cc4)n3)(C1)C2 [Example 243] |

Same assay, conditions: read-out: Activity (IC50); H4 ATF4-NLuc (clone 17) cells; compound 30 minutes, then 50 um sodium arsenite for 6 hours; luminescence readout

| IC50 [nM] | Structure (SMILES) |
| --- | --- |
| < 1000 | O=C(NC12CC(c3nnc([C@H]4C[C@@H](OC(F)(F)F)C4)o3)(C1)C2)c1ccc2cc(F)ccc2n1 [Example 189, 6-fluoro-N-[1-[5-[3-cis-(trifluoromethoxy)cyclobutyl]-1,3,4-oxadiazol-2-yl]-3-bicyclo[1.1.1]pentanyl]quinoline-2-carboxamide] |
| < 1000 | O=C(COc1ccc(Cl)c(F)c1)NC12CC(N3C[C@@H](C4CC(OC(F)(F)F)C4)OC3=O)(C1)C2 (single isomer, unassigned) [Example 209] |
| > 10000 | O=C(COc1ccc(Cl)c(F)c1)NC12CC(C3CN(C4CCC4)C(=O)O3)(C1)C2 (centres unmarked) [Example 219] |
